The source made the active and inactive calls. No cut-off for these calls is given here.

In one experiment the test system is Escherichia coli. Description: Antimicrobial activity against Escherichia coli ATCC 25922 assessed as induction of changes in mass spectral profile of bacteria by measuring decrease in peak at m/z 6320 and increase in peak at m/z 6405 at 1/16 to 1 times MIC uM by MALDI-TOF MS analysis. The class given is functional, organism-based.
For the compound `CC1(C)S[C@@H]2[C@H](NC(=O)[C@H](N)c3ccc(O)cc3)C(=O)N2[C@H]1C(=O)O`, the Activity entry was “Dose-dependent effect”.

The subject of a further experiment is Escherichia coli. The experiment can be described thus: Antimicrobial activity against Escherichia coli ATCC 25922 assessed as induction of changes in mass spectral profile of bacteria 1 times MIC uM by MALDI-TOF MS analysis. The class given is functional, organism-based.
As for `CC1(C)S[C@@H]2[C@H](NC(=O)[C@H](N)c3ccc(O)cc3)C(=O)N2[C@H]1C(=O)O`, the outcome was Active.

For `CO/N=C(\C(=O)N[C@@H]1C(=O)N2C(C(=O)O)=C(COC(C)=O)CS[C@H]12)c1csc(N)n1`, the outcome was Active.

Turning to `CC1(C)S[C@@H]2[C@H](NC(=O)Cc3ccccc3)C(=O)N2[C@H]1C(=O)O`, the result was Active.

On to `CN[C@H](CC(C)C)C(=O)N[C@H]1C(=O)N[C@@H](CC(N)=O)C(=O)N[C@H]2C(=O)N[C@H]3C(=O)N[C@H](C(=O)N[C@H](C(=O)O)c4cc(O)cc(O)c4-c4cc3ccc4O)[C@H](O)c3ccc(c(Cl)c3)Oc3cc2cc(c3O[C@@H]2O[C@H](CO)[C@@H](O)[C@H](O)[C@H]2O[C@H]2C[C@](C)(N)[C@H](O)[C@H](C)O2)Oc2ccc(cc2Cl)[C@H]1O`, for which the outcome was Active.

With `CO/N=C(\C(=O)N[C@@H]1C(=O)N2C(C(=O)O)=C(COC(N)=O)CS[C@H]12)c1ccco1`, the result was Active.

Source of the values: ChEMBL document CHEMBL4619716, “Machine Learning in Mass Spectrometry: A MALDI-TOF MS Approach to Phenotypic Antibacterial Screening” (2020).
